Measurements as given in US8969516B2, “Method of hydrolysis of peptide bond” (priority 2006, dated 2015).

Experiment: MALDI-TOF screening of Ni^2+ dependent hydrolysis in a combinatorial peptide library
Format: physicochemical
Conditions: Ni^2+ 2 mM, pH 8.2, 10 mM Tris, score=24/tm
Procedure, shortened: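 The screen used 1 mM peptide mixtures in 10 mM Tris, pH 8.2, with 2 mM Ni2+ at two temperatures, 37 °C and 45 °C. Product appearance and substrate decline were monitored visually by MALDI-TOF over 8 h. Scores for X and Z were then summed by row and column to rank substitutions.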

[1] = CH3CO-Gly-Ala-Ser-X-His-Z-Lys-Phe-Leu-NH2 library, 37° C.
[2] = CH3CO-Gly-Ala-Ser-X-His-Z-Lys-Phe-Leu-NH2 library, 45° C.
[3] = CH3CO-Gly-Ala-Thr-X-His-Z-Lys-Phe-Leu-NH2 library, 37° C.
[4] = CH3CO-Gly-Ala-Thr-X-His-Z-Lys-Phe-Leu-NH2 library, 45° C.

Row | Substance | hydrolysis score from MALDI-TOF screening [1] | hydrolysis score from MALDI-TOF screening [2] | hydrolysis score from MALDI-TOF screening [3] | hydrolysis score from MALDI-TOF screening [4]
1 | Ac-GASAHSKFL-NH2 [SAHS] | 0 (a score of 0 if no trace of the product of hydrolysis was seen after 8 hours of incubation) | 0 (a score of 0 if no trace of the product of hydrolysis was seen after 8 hours of incubation) | – | –
2 | Ac-GATIHAKFL-NH2 [TIHA] | – | – | 0 (a score of 0 if no trace of the product of hydrolysis was seen after 8 hours of incubation) | 0 (a score of 0 if no trace of the product of hydrolysis was seen after 8 hours of incubation)
3 | Ac-GATFHEKFL-NH2 [TFHE] | – | – | 0 (a score of 0 if no trace of the product of hydrolysis was seen after 8 hours of incubation) | 0 (a score of 0 if no trace of the product of hydrolysis was seen after 8 hours of incubation)
4 | Ac-GASHHPKFL-NH2 [SHHP] | 0 (a score of 0 if no trace of the product of hydrolysis was seen after 8 hours of incubation) | 0 (a score of 0 if no trace of the product of hydrolysis was seen after 8 hours of incubation) | – | –
5 | Ac-GATAHTKFL-NH2 [TAHT] | – | – | 0 (a score of 0 if no trace of the product of hydrolysis was seen after 8 hours of incubation) | 0 (a score of 0 if no trace of the product of hydrolysis was seen after 8 hours of incubation)
6 | Ac-GASKHWKFL-NH2 [SKHW] | 12 (a score of 12, if it was seen to be partially hydrolysed at 2 hours) | 12 (a score of 12, if it was seen to be partially hydrolysed at 2 hours) | – | –
7 | Ac-GATMHHKFL-NH2 [TMHH] | – | – | 0 (a score of 0 if no trace of the product of hydrolysis was seen after 8 hours of incubation) | 0 (a score of 0 if no trace of the product of hydrolysis was seen after 8 hours of incubation)
8 | Ac-GATMHWKFL-NH2 [TMHW] | – | – | 3 (a score of 3 for detection at 8 hours) | 3 (a score of 3 for detection at 8 hours)
9 | Ac-GASPHPKFL-NH2 [SPHP] | 0 (a score of 0 if no trace of the product of hydrolysis was seen after 8 hours of incubation) | 0 (a score of 0 if no trace of the product of hydrolysis was seen after 8 hours of incubation) | – | –
10 | Ac-GASFHYKFL-NH2 [SFHY] | 3 (a score of 3 for detection at 8 hours) | 6 (a score of 6 for detection at 4 hours) | – | –
11 | Ac-GATTHGKFL-NH2 [TTHG] | – | – | 0 (a score of 0 if no trace of the product of hydrolysis was seen after 8 hours of incubation) | 0 (a score of 0 if no trace of the product of hydrolysis was seen after 8 hours of incubation)
12 | Ac-GASIHPKFL-NH2 [SIHP] | 0 (a score of 0 if no trace of the product of hydrolysis was seen after 8 hours of incubation) | 0 (a score of 0 if no trace of the product of hydrolysis was seen after 8 hours of incubation) | – | –
13 | Ac-GATRHHKFL-NH2 [TRHH] | – | – | 3 (a score of 3 for detection at 8 hours) | 4 (a score of 4 for detection at 6 hours)
14 | Ac-GASNHEKFL-NH2 [SNHE] | 0 (a score of 0 if no trace of the product of hydrolysis was seen after 8 hours of incubation) | 0 (a score of 0 if no trace of the product of hydrolysis was seen after 8 hours of incubation) | – | –
15 | Ac-GASRHIKFL-NH2 [SRHI] | 12 (a score of 12, if it was seen to be partially hydrolysed at 2 hours) | 12 (a score of 12, if it was seen to be partially hydrolysed at 2 hours) | – | –
16 | Ac-GASPHLKFL-NH2 [SPHL] | 0 (a score of 0 if no trace of the product of hydrolysis was seen after 8 hours of incubation) | 0 (a score of 0 if no trace of the product of hydrolysis was seen after 8 hours of incubation) | – | –
17 | Ac-GASMHPKFL-NH2 [SMHP] | 0 (a score of 0 if no trace of the product of hydrolysis was seen after 8 hours of incubation) | 0 (a score of 0 if no trace of the product of hydrolysis was seen after 8 hours of incubation) | – | –
18 | Ac-GATLHNKFL-NH2 [TLHN] | – | – | 0 (a score of 0 if no trace of the product of hydrolysis was seen after 8 hours of incubation) | 0 (a score of 0 if no trace of the product of hydrolysis was seen after 8 hours of incubation)
19 | Ac-GATLHDKFL-NH2 [TLHD] | – | – | 0 (a score of 0 if no trace of the product of hydrolysis was seen after 8 hours of incubation) | 0 (a score of 0 if no trace of the product of hydrolysis was seen after 8 hours of incubation)

Row | Substance | hydrolysis score from MALDI-TOF screening [1] | hydrolysis score from MALDI-TOF screening [2] | hydrolysis score from MALDI-TOF screening [3] | hydrolysis score from MALDI-TOF screening [4]
20 | Ac-GATYHQKFL-NH2 [TYHQ] | – | – | 0 (a score of 0 if no trace of the product of hydrolysis was seen after 8 hours of incubation) | 0 (a score of 0 if no trace of the product of hydrolysis was seen after 8 hours of incubation)
21 | Ac-GASLHTKFL-NH2 [SLHT] | 0 (a score of 0 if no trace of the product of hydrolysis was seen after 8 hours of incubation) | 0 (a score of 0 if no trace of the product of hydrolysis was seen after 8 hours of incubation) | – | –
22 | Ac-GATPHNKFL-NH2 [TPHN] | – | – | – | 0 (a score of 0 if no trace of the product of hydrolysis was seen after 8 hours of incubation)
23 | Ac-GASKHGKFL-NH2 [SKHG] | 0 (a score of 0 if no trace of the product of hydrolysis was seen after 8 hours of incubation) | 0 (a score of 0 if no trace of the product of hydrolysis was seen after 8 hours of incubation) | – | –
24 | Ac-GATGHKKFL-NH2 [TGHK] | – | – | 0 (a score of 0 if no trace of the product of hydrolysis was seen after 8 hours of incubation) | 0 (a score of 0 if no trace of the product of hydrolysis was seen after 8 hours of incubation)
25 | Ac-GATTHVKFL-NH2 [TTHV] | – | – | 0 (a score of 0 if no trace of the product of hydrolysis was seen after 8 hours of incubation) | 0 (a score of 0 if no trace of the product of hydrolysis was seen after 8 hours of incubation)
26 | Ac-GASAHGKFL-NH2 [SAHG] | 0 (a score of 0 if no trace of the product of hydrolysis was seen after 8 hours of incubation) | 0 (a score of 0 if no trace of the product of hydrolysis was seen after 8 hours of incubation) | – | –
27 | Ac-GATRHEKFL-NH2 [TRHE] | – | – | 0 (a score of 0 if no trace of the product of hydrolysis was seen after 8 hours of incubation) | 0 (a score of 0 if no trace of the product of hydrolysis was seen after 8 hours of incubation)
28 | Ac-GATIHLKFL-NH2 [TIHL] | – | – | 0 (a score of 0 if no trace of the product of hydrolysis was seen after 8 hours of incubation) | 0 (a score of 0 if no trace of the product of hydrolysis was seen after 8 hours of incubation)
29 | Ac-GATHHHKFL-NH2 [THHH] | – | – | 3 (a score of 3 for detection at 8 hours) | 4 (a score of 4 for detection at 6 hours)
30 | Ac-GATQHFKFL-NH2 [TQHF] | – | – | 0 (a score of 0 if no trace of the product of hydrolysis was seen after 8 hours of incubation) | 0 (a score of 0 if no trace of the product of hydrolysis was seen after 8 hours of incubation)
31 | Ac-GATTHKKFL-NH2 [TTHK] | – | – | 0 (a score of 0 if no trace of the product of hydrolysis was seen after 8 hours of incubation) | 0 (a score of 0 if no trace of the product of hydrolysis was seen after 8 hours of incubation)
32 | Ac-GASIHQKFL-NH2 [SIHQ] | 0 (a score of 0 if no trace of the product of hydrolysis was seen after 8 hours of incubation) | 0 (a score of 0 if no trace of the product of hydrolysis was seen after 8 hours of incubation) | – | –
33 | Ac-GASLHMKFL-NH2 [SLHM] | 0 (a score of 0 if no trace of the product of hydrolysis was seen after 8 hours of incubation) | 0 (a score of 0 if no trace of the product of hydrolysis was seen after 8 hours of incubation) | – | –
34 | Ac-GATQHQKFL-NH2 [TQHQ] | – | – | 0 (a score of 0 if no trace of the product of hydrolysis was seen after 8 hours of incubation) | 0 (a score of 0 if no trace of the product of hydrolysis was seen after 8 hours of incubation)
35 | Ac-GATTHFKFL-NH2 [TTHF] | – | – | 0 (a score of 0 if no trace of the product of hydrolysis was seen after 8 hours of incubation) | 0 (a score of 0 if no trace of the product of hydrolysis was seen after 8 hours of incubation)
36 | Ac-GATFHLKFL-NH2 [TFHL] | – | – | 0 (a score of 0 if no trace of the product of hydrolysis was seen after 8 hours of incubation) | 0 (a score of 0 if no trace of the product of hydrolysis was seen after 8 hours of incubation)
37 | Ac-GASNHAKFL-NH2 [SNHA] | 0 (a score of 0 if no trace of the product of hydrolysis was seen after 8 hours of incubation) | 0 (a score of 0 if no trace of the product of hydrolysis was seen after 8 hours of incubation) | – | –
